The text below walks through data of patent US12583854B2, “KRAS G12C inhibitors and methods of using the same” (Amgen Inc., priority 2018, dated 2026).

Experiment [1] has as its target GDP-bound KRAS protein (aa 1-169), containing both G12C and C118A amino acid substitutions (Homo sapiens, UniProt P01116, C118A/G12C). In words: Coupled Nucleotide Exchange Assay. The experiment is classed as biochemical. The settings on record: 5 min compound pre-incubation; SOS-mediated nucleotide exchange, AlphaScreen. How it is done:
Following compound pre-incubation, purified SOS protein (aa 564-1049) and GTP (Roche 10106399001) were added to the assay wells and incubated for an additional 30 min. To determine the extent of inhibition of SOS-mediated nucleotide exchange, purified GST-tagged cRAF (aa 1-149), nickel chelate AlphaLISA acceptor beads (PerkinElmer AL108R), and AlphaScreen glutathione donor beads (PerkinElmer 6765302) were added to the assay wells and incubated for 10 minutes. The assay plates were then read on a PerkinElmer EnVision Multilabel Reader, using AlphaScreen® technology, and data were analyzed using a 4-parameter logistic model to calculate IC50 values.
(In general: Bead proximity is the source of the signal in Alpha formats.)

The subject of experiment [2] is Phosphorylation of ERK1/2 in MIA PaCa-2 cells. In words: Phospho-ERK1/2 MSD Assay. The experiment is classed as cell-based. The settings on record: EGF stimulation 10 ng/mL, 10 min, read-out: p-ERK IC50 (2 h). As to the method:
Phospho-ERK1/2 MSD Assay: MIA PaCa-2 (ATCC® CRL-1420™) and A549 (ATCC® CCL-185™) cells were cultured in RPMI 1640 Medium (ThermoFisher Scientific 11875093) containing 10% fetal bovine serum (ThermoFisher Scientific 16000044) and 1× penicillin-streptomycin-glutamine (ThermoFisher Scientific 10378016). Sixteen hours prior to compound treatment, MIA PaCa-2 were seeded in 96-well cell culture plates at a density of 25,000 cells/well and incubated at 37° C., 5% CO2. A compound dose-response titration was diluted in growth media, added to appropriate wells of a cell culture plate, and then incubated at 37° C., 5% CO2 for 2 (see Table 10). Following compound treatment, cells were stimulated with 10 ng/mL EGF (Roche 11376454001) for 10 min, washed with ice-cold Dulbecco's phosphate-buffered saline, no Ca^2+ or Mg^2+ (ThermoFisher Scientific 14190144), and then lysed in RIPA buffer (50 mM Tris-HCl pH 7.5, 1% Igepal, 0.5% sodium deoxycholate, 150 mM NaCl, and 0.5% sodium dodecyl sulfate) containing protease inhibitors (Roche 4693132001) and phosphatase inhibitors (Roche 4906837001). Phosphorylation of ERK1/2 in compound-treated lysates was assayed using Phospho-ERK1/2 Whole Cell Lysate kits (Meso Scale Discovery K151DWD) according to the manufacturer's protocol. Assay plates were read on a Meso Scale Discovery Sector Imager 6000, and data were analyzed using a 4-parameter logistic model to calculate IC50 values.

[3] abbreviates: Homo sapiens, MIA PaCa-2, 2 h compound treatment.

Counter-ions that a name gives are not always drawn. Like-named read-outs stand apart in the source and are kept apart here.

As a reminder, the IC50 is the concentration that inhibits the measured activity by half.

Chain of GDP-bound KRAS protein (aa 1-169), containing both G12C and C118A amino acid substitutions (P01116 1-169 isoform P01116-2 G12C/C118A): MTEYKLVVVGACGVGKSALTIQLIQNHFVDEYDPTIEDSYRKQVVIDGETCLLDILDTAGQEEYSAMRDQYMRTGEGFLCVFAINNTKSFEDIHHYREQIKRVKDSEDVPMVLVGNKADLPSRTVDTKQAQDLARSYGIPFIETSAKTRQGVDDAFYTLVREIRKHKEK

For `C=CC(=O)N1CCN(c2c(C#N)c(=O)n(-c3c(C(C)C)ncnc3C(C)C)c3nc(-c4c(N)cccc4F)c(Cl)cc23)CC1` [Example 11.4, 4-(4-acryloylpiperazin-1-yl)-7-(2-amino-6-fluorophenyl)-6-chloro-1-(4,6-diisopropylpyrimidin-5-yl)-2-oxo-1,2-dihydro-1,8-naphthyridine-3-carbonitrile], in experiment [1], the “Coupled exchange IC50 (5 min; μM)” value turned out to be 0.13 µM. Further, in experiment [2] (setting [3]), the IC50 came out at 90 nM.
Take `C=CC(=O)N1CCN(c2c(C#N)c(=O)n(-c3c(C(C)C)ccnc3N(C)C)c3nc(-c4ccccc4F)c(Cl)cc23)CC1` (single isomer, unassigned) [Example 8.4, 4-(4-acryloylpiperazin-1-yl)-6-chloro-1-(2-(dimethylamino)-4-isopropylpyridin-3-yl)-7-(2-fluorophenyl)-2-oxo-1,2-dihydro-1,8-naphthyridine-3-carbonitrile]: the “Coupled exchange IC50 (5 min; μM)” value in experiment [1] stood at 0.24 µM. Besides, the IC50 in experiment [2] (2 h compound treatment) stood at 240 nM.
Turning to `CNC/C=C/C(=O)N1CCN(c2c(C#N)c(=O)n(-c3c(C(C)C)ncnc3C(C)C)c3nc(-c4ccccc4F)c(Cl)cc23)CC1` [Example 4, (E)-6-Chloro-1-(4,6-diisopropylpyrimidin-5-yl)-7-(2-fluorophenyl)-4-(4-(4-(methylamino)but-2-enoyl)piperazin-1-yl)-2-oxo-1,2-dihydro-1,8-naphthyridine-3-carbonitrile trifluoroacetate salt], in experiment [1], the “Coupled exchange IC50 (5 min; μM)” value worked out at 0.34 µM. Further, the IC50 in experiment [2] (setting [3]) stood at 300 nM.
On to `C=CC(=O)N1CCN(c2c(C#N)c(=O)n(-c3c(C(C)C)ccnc3C(C)C)c3nc(-c4ccccc4F)c(Cl)cc23)CC1` (single isomer, unassigned) [Example 8.1, 4-(4-acryloylpiperazin-1-yl)-6-chloro-1-(2,4-diisopropylpyridin-3-yl)-7-(2-fluorophenyl)-2-oxo-1,2-dihydro-1,8-naphthyridine-3-carbonitrile], for which the “Coupled exchange IC50 (5 min; μM)” value in experiment [1] worked out at 0.07 µM. Besides, the IC50 in experiment [2] (setting [3]) was 320 nM.
Take `C=CC(=O)N1CCN(c2c(C#N)c(=O)n(-c3c(C(C)C)ncnc3C(C)C)c3nc(-c4ccccc4F)c(Cl)cc23)CC1` [Example 6.3, 4-(4-acryloylpiperazin-1-yl)-6-chloro-1-(4,6-diisopropylpyrimidin-5-yl)-7-(2-fluorophenyl)-2-oxo-1,2-dihydro-1,8-naphthyridine-3-carbonitrile]: the “Coupled exchange IC50 (5 min; μM)” value in experiment [1] is 0.07 µM. In addition, the IC50 in experiment [2] (setting [3]) is 40 nM.
Turning to `C=CC(=O)N1CCN(c2c(C#N)c(=O)n(-c3c(C(C)C)ccnc3C(C)C)c3nc(-c4ccccc4F)c(Cl)cc23)CC1` (single isomer, unassigned) [Example 8.2, 4-(4-acryloylpiperazin-1-yl)-6-chloro-1-(2,4-diisopropylpyridin-3-yl)-7-(2-fluorophenyl)-2-oxo-1,2-dihydro-1,8-naphthyridine-3-carbonitrile], the “Coupled exchange IC50 (5 min; μM)” value in experiment [1] came to 0.12 µM. In addition, in experiment [2] (2 h compound treatment), the IC50 was 160 nM.
With `CC(C)c1ncnc(C(C)C)c1-n1c(=O)c(C#N)c(N2CCN(C(=O)/C=C/CNC3CC3)CC2)c2cc(Cl)c(-c3ccccc3F)nc21` [Example 5, (E)-6-Chloro-4-(4-(4-(cyclopropylamino)but-2-enoyl)piperazin-1-yl)-1-(4,6-diisopropylpyrimidin-5-yl)-7-(2-fluorophenyl)-2-oxo-1,2-dihydro-1,8-naphthyridine-3-carbonitrile], in experiment [1], the “Coupled exchange IC50 (5 min; μM)” value came out at 0.70 µM. The IC50 in experiment [2] (setting [3]) stood at 760 nM.
`C=CC(=O)N1CCN(c2c(C#N)c(=O)n(-c3c(C(C)C)ccnc3C(C)C)c3nc(-c4ccccc4F)c(Cl)cc23)CC1` (racemic) [Example 8, 4-(4-Acryloylpiperazin-1-yl)-6-chloro-1-(2,4-diisopropylpyridin-3-yl)-7-(2-fluorophenyl)-2-oxo-1,2-dihydro-1,8-naphthyridine-3-carbonitrile]: in experiment [1], the “Coupled exchange IC50 (5 min; μM)” value came out at 0.06 µM. Further, the IC50 in experiment [2] (setting [3]) was 120 nM.
As for `C=CC(=O)N1[C@H](C)CN(c2c(C#N)c(=O)n(-c3c(C)ccnc3C(C)C)c3nc(-c4ccccc4F)c(Cl)cc23)C[C@@H]1C` (single isomer, unassigned) [Example 7.7], the “Coupled exchange IC50 (5 min; μM)” value in experiment [1] is 0.18 µM. In experiment [2] (setting [3]), the IC50 came to 260 nM.
On to `CC(C)c1ncnc(C(C)C)c1-n1c(=O)c(C#N)c(N2CCN(C(=O)/C=C/CNC(C)(C)C)CC2)c2cc(Cl)c(-c3ccccc3F)nc21` [Example 5.2, (E)-4-(4-(4-(tert-butylamino)but-2-enoyl)piperazin-1-yl)-6-chloro-1-(4,6-diisopropylpyrimidin-5-yl)-7-(2-fluorophenyl)-2-oxo-1,2-dihydro-1,8-naphthyridine-3-carbonitrile], for which the “Coupled exchange IC50 (5 min; μM)” value in experiment [1] is 0.44 µM. Further, the IC50 in experiment [2] (setting [3]) turned out to be 390 nM.
For the compound `C=CC(=O)N1CCN(c2c(C#N)c(=O)n(-c3c(N(C)C)ccnc3C(C)C)c3nc(-c4ccccc4F)c(Cl)cc23)CC1` (single isomer, unassigned) [Example 8.6, 4-(4-acryloylpiperazin-1-yl)-6-chloro-1-(4-(dimethylamino)-2-isopropylpyridin-3-yl)-7-(2-fluorophenyl)-2-oxo-1,2-dihydro-1,8-naphthyridine-3-carbonitrile], the “Coupled exchange IC50 (5 min; μM)” value in experiment [1] was found to be 0.25 µM. Further, the IC50 in experiment [2] (setting [3]) is 160 nM.
`C=CC(=O)N1CCN(c2c(C#N)c(=O)n(-c3c(C)ccnc3C(C)C)c3nc(-c4ccccc4F)c(Cl)cc23)C[C@H]1C` (single isomer, unassigned) [Example 6.7]: the “Coupled exchange IC50 (5 min; μM)” value in experiment [1] worked out at 0.20 µM. Moreover, in experiment [2] (setting [3]), the IC50 turned out to be 150 nM.
With `CC(C)NC/C=C/C(=O)N1CCN(c2c(C#N)c(=O)n(-c3c(C(C)C)ncnc3C(C)C)c3nc(-c4ccccc4F)c(Cl)cc23)CC1` [Example 5.1, (E)-6-chloro-1-(4,6-diisopropylpyrimidin-5-yl)-7-(2-fluorophenyl)-4-(4-(4-(isopropylamino)but-2-enoyl)piperazin-1-yl)-2-oxo-1,2-dihydro-1,8-naphthyridine-3-carbonitrile], in experiment [1], the “Coupled exchange IC50 (5 min; μM)” value was 0.44 µM. The IC50 in experiment [2] (setting [3]) was determined as 560 nM.
For `CC(C)c1ncnc(C(C)C)c1-n1c(=O)c(C#N)c(N2CCN(C(=O)/C=C/C3CCCN3C)CC2)c2cc(Cl)c(-c3ccccc3F)nc21` (stereo not drawn) [Example 3.2], in experiment [1], the “Coupled exchange IC50 (5 min; μM)” value is 0.71 µM. In addition, in experiment [2] (setting [3]), the IC50 was found to be 1260 nM.
In the case of `C=CC(=O)N1CCN(c2c(C#N)c(=O)n(-c3c(C)ccnc3C(C)C)c3nc(-c4ccccc4F)c(Cl)cc23)CC1` [Example 6.5, 4-(4-acryloylpiperazin-1-yl)-6-chloro-7-(2-fluorophenyl)-1-(2-isopropyl-4-methylpyridin-3-yl)-2-oxo-1,2-dihydro-1,8-naphthyridine-3-carbonitrile], the “Coupled exchange IC50 (5 min; μM)” value in experiment [1] came to 0.10 µM. Besides, in experiment [2] (2 h compound treatment), the IC50 was found to be 60 nM.
